The values below come from patent US12071648B2, “Ex vivo model of inflamed human skin and uses thereof for screening anti-inflammatory compounds” (GENOSKIN, priority 2017, dated 2024).

What all share (assay type): cell-based, human
One experiment deals with IL-17A. Nature of the experiment: IL-17A secretion by the InflammaSkin ex vivo model of inflamed skin, ELISA of culture media. The procedure: (§1) Using a clamp, the skin biopsy is held flat, with the dermis on top. A needle with no dead volume is inserted into the biopsy from the side of the dermis using a 701N or 705N Hamilton syringe (for 8 mm or 15 mm diameter biopsies, respectively). 10 μL or 35 μL of the activation solution (50 ng/μL anti-CD3 antibody, 50 ng/μL anti-CD28 antibody, and 10 ng/mL IL-2) for biopsies of 8 or 15 mm diameter, respectively, are injected from the side of the biopsy to avoid damage to the epidermis.
(§2) In WILLIAM'S E synthetic culture medium, the following supplements are added: 10 ng/mL IL-1β, 50 ng/mL IL-23, and 10 ng/mL TGFbeta. The culture is carried out for 7 days in a CO2 incubator at 37° C. The culture medium containing the supplements is changed daily.
(§3) The cytokines IL-17A, IL-22, and IFNγ produced by the model were analyzed in the culture media by an ELISA assay using a specific detection kit from Meso Scale Discovery (U-PLEX TH17 Combo 2 Human Reference K15076K) and using a multiplex assay platform (MESO QuickPlex SQ 120).
(§4) In order to test the relevance of the model of inflamed skin obtained by the method of the invention, compounds known for their anti-inflammatory effect were tested. These are betamethasone di-propionate and the PDE4 inhibitor. […]
Background: ELISA stands for enzyme-linked immunosorbent assay.

The subject of experiment [1] is IL-22. Nature of the experiment: IL-22 secretion by the InflammaSkin ex vivo model of inflamed skin, ELISA of culture media. On the procedure:
as §1, §2, §3, §4

A further experiment concerns IFNγ. Nature of the experiment: IFNγ secretion by the InflammaSkin ex vivo model of inflamed skin, ELISA of culture media. On the procedure: as §1, §2, §3, §4
For the next experiment, the system named is TNFα. Nature of the experiment: TNFα secretion by the InflammaSkin ex vivo model of inflamed skin.
The subject of experiment [2] is ex vivo model of inflamed skin (InflammaSkin). Nature of the experiment: Histological analysis of the InflammaSkin model after topical treatment. The procedure:
as §1, §2
The skin biopsy treated according to steps a) and b) of the method of the invention is dehydrated by an alcohol bath, and then passed through a xylene bath. A first bath in paraffin allows to replace the water previously contained in the skin explant by paraffin.
Serial sections of a thickness varying from 4 to 5 μm are then made along the entire length of the paraffin block containing the sample.
as §4

Experiment [3] has as its system ex vivo model of inflamed skin (Hypo-InflammaSkin). Nature of the experiment: Histology analysis (hematoxylin and eosin) of the Hypo-InflammaSkin model after subcutaneous injection. On the procedure: In a second embodiment, the hypodermis is preserved. The biopsies (epidermis, dermis, and hypodermis), the thickness of which is about 1 cm, are then cut out using a metal punch. This second embodiment is for testing anti-inflammatory compounds by subcutaneous injection.
(§5) In order to test the relevance of the model of inflamed skin obtained by the method of the invention (Hypo-InflammaSkin®), an antibody known for its anti-inflammatory effect was tested. This is the adalimumab anti-TNFα antibody. Biopsies of inflamed skin (Hypo-InflammaSkin®−I) with a thickness of 1 cm were obtained by the method of the invention. A subcutaneous injection (namely into the […]) of 50 nM adalimumab was performed at TO (prophylactic treatment, Hypo-InflammaSkin®−I+anti-TNFα−P) or after 3 days of ex vivo culture of the inflamed biopsy (therapeutic treatment, Hypo-InflammaSkin®−I+anti-TNFα−T). After 7 days of ex vivo culture, the culture media are taken, and skin biopsies are fixed in a 10% formalin solution and then embedded in paraffin blocks. Serial sections of a constant thickness of 5 μm of the biopsies are made. The morphological appearance of the skin biopsies is studied under optical microscopy using hematoxylin and eosin staining. The presence of psoriasin (S110A7) is identified by fluorescence microscopy (Leica DM 5000 microscope) using an anti-S100A7 antibody coupled to a fluorochrome. […]

The subject of a further experiment is psoriasin (S100A7). Nature of the experiment: Psoriasin detection by fluorescence microscopy in the Hypo-InflammaSkin model. The note with it: inflamed biopsy treated by subcutaneous injection of 50 nM, 7 days of ex vivo culture. The procedure: In order to test the relevance of the model of inflamed skin obtained by the method of the invention (Hypo-InflammaSkin®), an antibody known for its anti-inflammatory effect was tested. This is the adalimumab anti-TNFα antibody. Biopsies of inflamed skin (Hypo-InflammaSkin®−I) with a thickness of 1 cm were obtained by the method of the invention. A subcutaneous injection (namely into the […]) of 50 nM adalimumab was performed at TO (prophylactic treatment, Hypo-InflammaSkin®−I+anti-TNFα−P) or after 3 days of ex vivo culture of the inflamed biopsy (therapeutic treatment, Hypo-InflammaSkin®−I+anti-TNFα−T). After 7 days of ex vivo culture, the culture media are taken, and skin biopsies are fixed in a 10% formalin solution and then embedded in paraffin blocks. Serial sections of a constant thickness of 5 μm of the biopsies are made. The morphological appearance of the skin biopsies is studied under optical microscopy using hematoxylin and eosin staining. The presence of psoriasin (S110A7) is identified by fluorescence microscopy (Leica DM 5000 microscope) using an anti-S100A7 antibody coupled to a fluorochrome. The cell nuclei are marked with DAPI. Biopsies of non-inflamed skin (HypoSkin®−biopsies including the epidermis, dermis, and hypodermis) are used for control.

For experiment [4], the system named is IL-22. Nature of the experiment: IL-22 secretion by the Hypo-InflammaSkin model. The procedure: as §3, §5

Take `CCC(=O)OCC(=O)[C@@]1(OC(=O)CC)[C@@H](C)C[C@H]2[C@@H]3CCC4=CC(=O)C=C[C@]4(C)[C@@]3(F)[C@@H](O)C[C@@]21C` [betamethasone di-propionate]: the IL-17A secretion entry was “strongly inhibited” in the experiment on IL-17A (prophylactic treatment, topical 10 μL daily until 7th day of culture, compared to placebo control (FIG. 6A)) and “inhibits IL-17A secretion” in the experiment on IL-17A (therapeutic treatment, topical from 3 days of culture, daily until 7th day (FIG. 6B)). Moreover, the IL-22 secretion entry is “strongly inhibited” in the experiment with IL-22 [1] (prophylactic treatment, topical 10 μL daily until 7th day of culture, compared to placebo control (FIG. 7A)) and “inhibits IL-22 secretion” in the experiment on IL-22 [1] (therapeutic treatment, topical from 3 days of culture, daily until 7th day (FIG. 7B)). Besides, the IFNγ secretion entry was “strongly inhibited” in the experiment on IFNγ (prophylactic treatment, topical 10 μL daily until 7th day of culture, compared to placebo control (FIG. 8A)) and “inhibits IFNγ secretion” in the experiment with IFNγ (therapeutic treatment, topical from 3 days of culture, daily until 7th day (FIG. 8B)). For the same molecule, the TNFα secretion entry in the experiment with TNFα (prophylactic treatment, topical 10 μL daily until 7th day of culture, compared to placebo control (FIG. 9A)) is listed as “strongly inhibited”; with TNFα (therapeutic treatment, topical from 3 days of culture, daily until 7th day (FIG. 9B)), “strongly inhibited”. Also, the “histological abnormalities in the epidermis” value in experiment [2] (after 7 days of culture (FIG. 5 legend)) is reported as “total absence of histological abnormalities in the epidermis”. Moreover, the “integrity and structure of the skin, particularly the epidermis, and viability of epidermal cells” value in experiment [2] (prophylactic treatment, compared to placebo controls (FIG. 5)) is recorded as “preserved”.

adalimumab: the “integrity and structure of the skin, more particularly the epidermis, and epidermal cell viability” value in experiment [3] (prophylactic treatment, subcutaneous injection of 50 nM at T0, 7 days of ex vivo culture (FIG. 13)) is on record as “preserved”; in experiment [3] (therapeutic treatment, subcutaneous injection of 50 nM after 3 days of culture, 7 days of ex vivo culture (FIG. 13)), “preserved”. In the experiment with psoriasin (S100A7), the presence of psoriasin entry is on record as “almost undetectable”. Also, the IL-22 secretion result in the experiment with IL-22 [4] (prophylactic treatment, subcutaneous injection of 50 nM at T0, compared to untreated inflamed biopsy (FIG. 14)) is “strongly inhibited”; with IL-22 [4] (therapeutic treatment, subcutaneous injection of 50 nM after 3 days of culture, compared to untreated inflamed biopsy (FIG. 14)) it was “strongly inhibited”.
